According to PubChem BioAssay AID248 (DTP/NCI, 2004):
Where “and” joins values, the source holds several entries; their conditions need not be identical. Equal entries are not always repeated. Inconclusive results and toxic doses are left out. Cut-off read from the data, not from the text of the source: active = T/C of 150% or more; inactive = T/C below 125%.

Tested on: L1210 leukemia ip in BDF1 mice, survival T/C
Test: NCI In Vivo Anticancer Drug Screen. Data for tumor model L1210 Leukemia (intraperitoneal) in B6D2F1 (BDF1) mice
Conditions: endpoint: mean survival time, higher = longer survival
Outline: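 Survival endpoint. Drug-treated group vs vehicle group, expressed as T divided by C. Tumor passaged by transplantation.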

[1] = dose: 100.0 mg/kg/injection, schedule: Q01DX009 (ip), vehicle: Klucel (hydroxypropylcellulose) (HPC)
[2] = dose: 100.0 mg/kg/injection, schedule: Q04DX003 (ip), vehicle: Klucel (hydroxypropylcellulose) (HPC)
[3] = dose: 200.0 mg/kg/injection, schedule: Q01DX009 (ip), vehicle: Klucel (hydroxypropylcellulose) (HPC)
[4] = dose: 200.0 mg/kg/injection, schedule: Q04DX003 (ip), vehicle: Klucel (hydroxypropylcellulose) (HPC)
[5] = dose: 400.0 mg/kg/injection, schedule: Q01DX009 (ip), vehicle: Klucel (hydroxypropylcellulose) (HPC)
[6] = dose: 400.0 mg/kg/injection, schedule: Q04DX003 (ip), vehicle: Klucel (hydroxypropylcellulose) (HPC)
[7] = dose: 100.0 mg/kg/injection, schedule: Q04DX003 (ip), vehicle: saline with Tween-80
[8] = dose: 200.0 mg/kg/injection, schedule: Q04DX003 (ip), vehicle: saline with Tween-80
[9] = dose: 400.0 mg/kg/injection, schedule: Q04DX003 (ip), vehicle: saline with Tween-80
[10] = dose: 100.0 mg/kg/injection, schedule: Q04DX002 (ip), vehicle: saline with Tween-80
[11] = dose: 200.0 mg/kg/injection, schedule: Q04DX002 (ip), vehicle: saline with Tween-80
[12] = dose: 400.0 mg/kg/injection, schedule: Q04DX002 (ip), vehicle: saline with Tween-80
[13] = dose: 100.0 mg/kg/injection, schedule: Q01DX001 (ip), vehicle: saline
[14] = dose: 200.0 mg/kg/injection, schedule: Q01DX001 (ip), vehicle: saline
[15] = dose: 400.0 mg/kg/injection, schedule: Q01DX001 (ip), vehicle: saline
[16] = dose: 100.0 mg/kg/injection, schedule: Q01DX009 (ip), vehicle: saline

Measured: T/C

O=C(O)Cc1ccc2c(c1)OCO2.[Ag]
inactive: dose: 9.38 mg/kg/injection, schedule: Q01DX001 (ip), vehicle: steriod suspending solution 95 % of control | dose: 18.75 mg/kg/injection, schedule: Q01DX001 (ip), vehicle: steriod suspending solution 94 % of control | dose: 37.5 mg/kg/injection, schedule: Q01DX001 (ip), vehicle: steriod suspending solution 92 % of control

CC1(C)C2CCC1(C)C(COC(=O)c1cc([N+](=O)[O-])cc([N+](=O)[O-])c1)C2 (centres undefined)
inactive: [1] 100 % of control | [2] 104 % of control | [3] 92 % of control | [4] 100 % of control | [5] 89 % of control | [6] 102 % of control

O=CN1CCCC1C(=O)O (centres undefined)
inactive: dose: 25.0 mg/kg/injection, schedule: Q01DX009 (ip), vehicle: water 98 % of control | dose: 50.0 mg/kg/injection, schedule: Q01DX009 (ip), vehicle: water 101 % of control | dose: 100.0 mg/kg/injection, schedule: Q01DX009 (ip), vehicle: water 95 % of control | dose: 200.0 mg/kg/injection, schedule: Q01DX009 (ip), vehicle: water 101 % of control

CC(=O)Oc1cc(O)c2c(c1)OC(C)(C)CC2=O
inactive: [1] 98 % of control | [2] 93 % of control | [3] 98 % of control | [4] 100 % of control | [5] 96 % of control | [6] 97 % of control

CCCc1nc2ccccc2c(=O)n1/N=C/c1ccccc1O
inactive: [1] 97 % of control | [3] 102 % of control | [5] 103 % of control

COc1ccc(N2CCN(/C=C/C(=O)c3ccc(C)cc3C)CC2)cc1
inactive: [7] 97 % of control | [8] 95 % of control | [9] 106 % of control

COc1cccc(NC(=S)NC2CCCCCCCCCCC2)c1
inactive: dose: 100.0 mg/kg/injection, schedule: Q04DX002 (ip), vehicle: gum acacia 94 % of control | dose: 200.0 mg/kg/injection, schedule: Q04DX002 (ip), vehicle: gum acacia 94 % of control | dose: 400.0 mg/kg/injection, schedule: Q04DX002 (ip), vehicle: gum acacia 94 % of control

CSc1ccc(NC(=O)OCC2CC3C=CC2C3)cc1 (centres undefined)
inactive: dose: 100.0 mg/kg/injection, schedule: Q01DX009 (ip), vehicle: saline with Tween-80 96 % of control and 92 % of control | [10] 89 % of control | [7] 95 % of control | dose: 200.0 mg/kg/injection, schedule: Q01DX009 (ip), vehicle: saline with Tween-80 94 % of control and 110 % of control | [11] 89 % of control | [8] 93 % of control | dose: 400.0 mg/kg/injection, schedule: Q01DX009 (ip), vehicle: saline with Tween-80 94 % of control and 100 % of control | [12] 111 % of control | [9] 98 % of control

Cc1ccc(S(=O)(=O)OCC2OCC(O)C(O)C2O)cc1 (centres undefined)
inactive: [7] 86 % of control | [8] 86 % of control | [9] 86 % of control

C=C1C(=O)N2CCCC2C(=O)N1C (centres undefined)
inactive: dose: 75.0 mg/kg/injection, schedule: Q04DX002 (ip), vehicle: saline 94 % of control | dose: 150.0 mg/kg/injection, schedule: Q04DX002 (ip), vehicle: saline 97 % of control | dose: 300.0 mg/kg/injection, schedule: Q04DX002 (ip), vehicle: saline 87 % of control

O=C(Nc1ncn[nH]1)C(F)(F)F
inactive: [13] 103 % of control | [14] 103 % of control | [15] 92 % of control

C=C1C=C(C)N(C(C)=O)CCN1C(C)=O
inactive: [16] 95 % of control | dose: 200.0 mg/kg/injection, schedule: Q01DX009 (ip), vehicle: saline 92 % of control | dose: 400.0 mg/kg/injection, schedule: Q01DX009 (ip), vehicle: saline 90 % of control

[Si]c1ccccc1
inactive: [10] 102 % of control | [11] 93 % of control | [12] 98 % of control

O=c1[nH]cnc2ncccc12
inactive: [13] 106 % of control | [14] 104 % of control

CCCCC(CC)COP(=O)(CC(CC)CCCC)OCC(CC)CCCC (centres undefined)
inactive: dose: 50.0 mg/kg/injection, schedule: Q01DX009 (ip), vehicle: saline 111 % of control | [16] 107 % of control

CC(O)(C(=O)O)C(O)C(O)CO (centres undefined)
inactive: [10] 100 % of control | [11] 88 % of control | [12] 100 % of control

N=C(N)c1ncn(C2CCCC2)c1N
inactive: dose: 75.0 mg/kg/injection, schedule: Q01DX001 (ip), vehicle: saline 106 % of control | dose: 150.0 mg/kg/injection, schedule: Q01DX001 (ip), vehicle: saline 105 % of control

CCn1cnc2c(SC)nc(N)nc21
inactive: dose: 37.5 mg/kg/injection, schedule: Q01DX009 (ip), vehicle: Klucel (hydroxypropylcellulose) (HPC) 101 % of control | dose: 50.0 mg/kg/injection, schedule: Q04DX003 (ip), vehicle: other 101 % of control | dose: 75.0 mg/kg/injection, schedule: Q01DX009 (ip), vehicle: Klucel (hydroxypropylcellulose) (HPC) 103 % of control | dose: 100.0 mg/kg/injection, schedule: Q04DX003 (ip), vehicle: other 104 % of control | dose: 150.0 mg/kg/injection, schedule: Q01DX009 (ip), vehicle: Klucel (hydroxypropylcellulose) (HPC) 108 % of control | dose: 200.0 mg/kg/injection, schedule: Q04DX003 (ip), vehicle: other 87 % of control

Nc1nc(Cl)[nH]c(=O)n1
inactive: dose: 12.5 mg/kg/injection, schedule: Q01DX001 (ip), vehicle: Klucel (hydroxypropylcellulose) (HPC) 105 % of control | dose: 25.0 mg/kg/injection, schedule: Q01DX001 (ip), vehicle: Klucel (hydroxypropylcellulose) (HPC) 97 % of control | dose: 50.0 mg/kg/injection, schedule: Q01DX001 (ip), vehicle: Klucel (hydroxypropylcellulose) (HPC) 100 % of control

CCC(C1=CCCCC1)c1nc2c([nH]1)c(=O)n(C)c(=O)n2C (centres undefined)
inactive: dose: 50.0 mg/kg/injection, schedule: Q01DX001 (ip), vehicle: other 101 % of control | dose: 100.0 mg/kg/injection, schedule: Q01DX001 (ip), vehicle: other 90 % of control | dose: 200.0 mg/kg/injection, schedule: Q01DX001 (ip), vehicle: other 90 % of control | dose: 400.0 mg/kg/injection, schedule: Q01DX001 (ip), vehicle: other 97 % of control

O=C1CCCCC1C(=O)C(F)(F)C(F)(F)C(F)(F)F (centres undefined)
inactive: dose: 90.0 mg/kg/injection, schedule: Q01DX Z (ip), vehicle: methylcellulose (MC) 97 % of control | dose: 150.0 mg/kg/injection, schedule: Q01DX Z (ip), vehicle: methylcellulose (MC) 102 % of control | dose: 222.0 mg/kg/injection, schedule: Q01DX Z (ip), vehicle: methylcellulose (MC) 97 % of control | dose: 333.0 mg/kg/injection, schedule: Q01DX Z (ip), vehicle: methylcellulose (MC) 102 % of control

N/N=C(\N)c1ccc(NC(=O)c2ccc(C(=O)Nc3ccc(/C(N)=N/N)cc3)cc2)cc1
inactive: dose: 15.0 mg/kg/injection, schedule: Q01DX Z (ip), vehicle: saline 104 % of control | dose: 30.0 mg/kg/injection, schedule: Q01DX Z (ip), vehicle: saline 100 % of control | dose: 60.0 mg/kg/injection, schedule: Q01DX Z (ip), vehicle: saline 103 % of control | dose: 120.0 mg/kg/injection, schedule: Q01DX Z (ip), vehicle: saline 97 % of control

CC(C)(SC(c1ccccc1)(c1ccccc1)c1ccccc1)C(N)C(=O)O (centres undefined)
inactive: dose: 6.25 mg/kg/injection, schedule: Q01DX009 (ip), vehicle: saline 103 % of control | dose: 12.5 mg/kg/injection, schedule: Q01DX009 (ip), vehicle: saline 102 % of control | dose: 25.0 mg/kg/injection, schedule: Q01DX009 (ip), vehicle: saline 108 % of control

NCCCCC(=O)NC(CCCCNC(=O)OCc1ccccc1)C(=O)O (centres undefined)
inactive: [13] 102 % of control | [14] 107 % of control | [15] 105 % of control

C/C=C/CC1(c2ccccc2)C(=O)NC(=S)NC1=O
inactive: dose: 75.0 mg/kg/injection, schedule: Q01DX001 (ip), vehicle: other 108 % of control | dose: 150.0 mg/kg/injection, schedule: Q01DX001 (ip), vehicle: other 107 % of control | dose: 300.0 mg/kg/injection, schedule: Q01DX001 (ip), vehicle: other 103 % of control

CCOC(=O)c1ccc(NC(=S)Nc2ccccc2S)cc1
inactive: dose: 25.0 mg/kg/injection, schedule: Q04DX002 (ip), vehicle: saline with Tween-80 101 % of control | dose: 50.0 mg/kg/injection, schedule: Q04DX002 (ip), vehicle: saline with Tween-80 101 % of control | [10] 93 % of control and 87 % of control
